Results on four compounds are retold here after the NIST ThermoML archive (doi:10.1016/j.jct.2007.03.009).

The conditions of the data set: for mass density: 298 K, 101.33 kPa, Liquid, masses and of the volumes of pellets.; for Normal melting temperature / vapor or sublimation pressure: Crystal; for Normal melting temperature: DTA; for vapor or sublimation pressure: Knudsen effusion.

Where “and” joins values, the source holds several entries; their conditions need not be identical. Identical values can stand only once. Numbers after ± are expanded uncertainties.

Turning to `O=C1c2ccccc2C(=O)N1CCBr` [N-(2-bromoethyl)phthalimide], the mass density – broadly, mass per unit of volume – is on record as 1323 ± 26 kg/m3 and the Normal melting temperature was found to be 81.5 ± 0.5 °C.
On to `O=C1c2ccccc2C(=O)N1CCCl` [N-(2-chloroethyl)phthalimide], for which the mass density came out at 1218 ± 24 kg/m3 and the Normal melting temperature was found to be 82.8 ± 0.5 °C.
The matching figures for `O=C1c2ccccc2C(=O)N1CCCBr` [N-(3-bromopropyl)phthalimide]: 1051 ± 21 kg/m3 and 72.8 ± 0.5 °C.
As for `O=C1c2ccccc2C(=O)N1CCl` [N-(chloromethyl)phthalimide], the mass density is on record as 1081 ± 22 kg/m3 and the Normal melting temperature is 133.5 ± 0.5 °C. Also, the vapor or sublimation pressure (usually the pressure of vapour in equilibrium with the condensed phase) (323.27 K) was 0.000111 ± 2e-05 kPa and 0.000106 ± 2e-05 kPa. In addition, the “vapor or sublimation pressure” value (325.24 K) was 0.000138 ± 2.1e-05 kPa and 0.000137 ± 2.1e-05 kPa and 0.000132 ± 2.1e-05 kPa. Moreover, the “vapor or sublimation pressure” value (327.12 K) is 0.000171 ± 2.1e-05 kPa and 0.000168 ± 2.1e-05 kPa and 0.000169 ± 2.1e-05 kPa. For the setting “329.26 K”, the “vapor or sublimation pressure” value is 0.000218 ± 2.1e-05 kPa and 0.000207 ± 2.1e-05 kPa and 0.00022 ± 2.1e-05 kPa. The “vapor or sublimation pressure” value (331.23 K) was 0.000282 ± 2.2e-05 kPa and 0.00027 ± 2.2e-05 kPa and 0.000262 ± 2.2e-05 kPa. For the same compound, the “vapor or sublimation pressure” value (333.11 K) was 0.00033 ± 2.3e-05 kPa and 0.000328 ± 2.3e-05 kPa and 0.000329 ± 2.3e-05 kPa. Also, the “vapor or sublimation pressure” value (335.12 K) is 0.00042 ± 2.5e-05 kPa and 0.000413 ± 2.5e-05 kPa and 0.000402 ± 2.5e-05 kPa. Further, under “337.26 K”, the “vapor or sublimation pressure” value is 0.000534 ± 2.8e-05 kPa and 0.000519 ± 2.7e-05 kPa and 0.000507 ± 2.7e-05 kPa. Besides, under “339.12 K”, the “vapor or sublimation pressure” value is 0.000648 ± 3e-05 kPa and 0.000644 ± 3e-05 kPa and 0.000618 ± 3e-05 kPa. Also, the “vapor or sublimation pressure” value (341.22 K) was 0.000835 ± 3.6e-05 kPa and 0.000801 ± 3.5e-05 kPa and 0.00077 ± 3.4e-05 kPa. In addition, the “vapor or sublimation pressure” value (343.25 K) was 0.001007 ± 4.1e-05 kPa and 0.000989 ± 4e-05 kPa and 0.000946 ± 3.9e-05 kPa.
